In ChEMBL document CHEMBL1158719, “Cytotoxic xanthones from Cudrania tricuspidata” (J Nat Prod, 2005):

How the values were obtained:
A549 = test: Cytotoxicity against human A549 cells after 48 hrs by SRB assay; type: functional, cell-based; settings: A549, 48 h
SK-OV-3 = test: Cytotoxicity against human SKOV3 cells after 48 hrs by SRB assay; type: functional, cell-based; settings: SK-OV-3, 48 h

Compound	IC50 (A549) [µM]	IC50 (SK-OV-3) [µM]
C=CC(C)(C)c1c(O)cc(O)c2c(=O)c3c(CC=C(C)C)c(O)c(O)cc3oc12 [CUDRATRICUSXANTHONE A]	5.93	7.09
CC(=O)O[C@H]1C(=O)[C@@]2(C)[C@H]([C@H](OC(=O)c3ccccc3)[C@]3(O)C[C@H](OC(=O)[C@H](O)[C@@H](NC(=O)c4ccccc4)c4ccccc4)C(C)=C1C3(C)C)[C@]1(OC(C)=O)CO[C@@H]1C[C@@H]2O [PACLITAXEL]	1.25	1.35
C=CC(C)(C)c1c(O)c(CC=C(C)C)c2oc3cc(O)c(O)cc3c(=O)c2c1O [MACLURAXANTHONE B]	2.88	4.24
C=CC(C)(C)c1c(O)cc2oc3c(CC=C(C)C)c(O)c(O)cc3c(=O)c2c1O [CUDRAXANTHONE L]	3.15	4.72
